Data on 14 compounds can be found in patent publication US12258327B2, “5-membered heteroaryl-containing aminopyridine compounds as EGFR inhibitors” (YUHAN CORPORATION, priority 2021, dated 2025).

Molecules are shown by their SMILES. Where two headings read alike, the source gives them in different places.

For one assay, the target named is EGFR wildtype (WT) (Homo sapiens, UniProt P00533). As to the kind of experiment: Biochemical EGFR kinase assay (Lance Ultra TR-FRET), wildtype. How it is done: (§1) Biochemical EGFR kinase assays were conducted using Lance Ultra time-resolved fluorescence resonance energy transfer (TR-FRET) technology from Perkin-Elmer. Compounds of the invention were initially diluted to 20 mM in 100% DMSO for storage and made into kinase buffer solution to create a compound concentration ranging from 0.003 μM and 10 μM.
(§2) Each kinase reactions were incubated at room temperature for 1 hour and then stopped by the addition of 4 μL of stop solution (10 mM EDTA). The specific Europium-labeled-anti-phosphopeptide antibody (PerkinElmer, AD0069) diluted in LANCE detection buffer was then added to a final concentration of 2 nM. After 60 minutes incubation at room temperature the LANCE signal was measured on an EnVision Multilabel Reader (Perkin-Elmer). Excitation wavelength was set at 320 nm and emission monitored at 615 nm (donor) and 665 nm (acceptor). The IC50 values were determined using GraphPad prism software (GraphPad Software, Inc., San Diego, CA, USA).

A further assay addresses EGFR del19/C797S (Homo sapiens, UniProt P00533, C797S/DEL746-750). Nature of the assay: Biochemical EGFR kinase assay (Lance Ultra TR-FRET), double mutant del19/C797S. The following applies: Km ATP; read-out: IC50 del19/C797S (nM) Km ATP. As to the method:
as §1, §2
On the technique in general: Time-resolved FRET reads energy transfer from a long-lived donor to a nearby acceptor.

In another assay the target is EGFR L858R/T790M/C797S (Homo sapiens, UniProt P00533, C797S/L858R/T790M). As to the kind of experiment: Biochemical EGFR kinase assay (Lance Ultra TR-FRET), triple mutant L858R/T790M/C797S. How it is done:
as §1, §2

For another assay, the target named is EGFR del19/T790M/C797S (Homo sapiens, UniProt P00533, C797S/DEL746-750/T790M). As to the kind of experiment: Biochemical EGFR kinase assay (Lance Ultra TR-FRET), triple mutant del19/T790M/C797S. As to the method:
as §1, §2

In a further assay the target is EGFR L858R/C797S (Homo sapiens, UniProt P00533, C797S/L858R). As to the kind of experiment: Biochemical EGFR kinase assay (Lance Ultra TR-FRET), double mutant L858R/C797S. As to the method:
as §1, §2

[1] abbreviates: Km ATP, read-out: IC50 WT (nM) Km ATP.
Setting [2] is: Km ATP, read-out: IC50 L858R/T790M/C797S (nM) Km ATP.
[3] abbreviates: Km ATP, read-out: IC50 del19/T790M/C797S (nM) Km ATP.
Setting [4] is: IC50 L858R/C797S (nM) 100 μM ATP, 100 μM ATP.
Where [5] appears, read: IC50 WT (nM) 100 μM ATP, 100 μM ATP.
[6] abbreviates: IC50 L858R/T790M/C797S (nM) 100 μM ATP, 100 μM ATP.
Setting [7] is: IC50 del19/T790M/C797S (nM) 100 μM ATP, 100 μM ATP.
Where [8] appears, read: Km ATP, read-out: IC50 L858R/C797S (nM) Km ATP.

Chain of EGFR L858R/T790M/C797S (P00533 25-1210 T790M/C797S/L858R): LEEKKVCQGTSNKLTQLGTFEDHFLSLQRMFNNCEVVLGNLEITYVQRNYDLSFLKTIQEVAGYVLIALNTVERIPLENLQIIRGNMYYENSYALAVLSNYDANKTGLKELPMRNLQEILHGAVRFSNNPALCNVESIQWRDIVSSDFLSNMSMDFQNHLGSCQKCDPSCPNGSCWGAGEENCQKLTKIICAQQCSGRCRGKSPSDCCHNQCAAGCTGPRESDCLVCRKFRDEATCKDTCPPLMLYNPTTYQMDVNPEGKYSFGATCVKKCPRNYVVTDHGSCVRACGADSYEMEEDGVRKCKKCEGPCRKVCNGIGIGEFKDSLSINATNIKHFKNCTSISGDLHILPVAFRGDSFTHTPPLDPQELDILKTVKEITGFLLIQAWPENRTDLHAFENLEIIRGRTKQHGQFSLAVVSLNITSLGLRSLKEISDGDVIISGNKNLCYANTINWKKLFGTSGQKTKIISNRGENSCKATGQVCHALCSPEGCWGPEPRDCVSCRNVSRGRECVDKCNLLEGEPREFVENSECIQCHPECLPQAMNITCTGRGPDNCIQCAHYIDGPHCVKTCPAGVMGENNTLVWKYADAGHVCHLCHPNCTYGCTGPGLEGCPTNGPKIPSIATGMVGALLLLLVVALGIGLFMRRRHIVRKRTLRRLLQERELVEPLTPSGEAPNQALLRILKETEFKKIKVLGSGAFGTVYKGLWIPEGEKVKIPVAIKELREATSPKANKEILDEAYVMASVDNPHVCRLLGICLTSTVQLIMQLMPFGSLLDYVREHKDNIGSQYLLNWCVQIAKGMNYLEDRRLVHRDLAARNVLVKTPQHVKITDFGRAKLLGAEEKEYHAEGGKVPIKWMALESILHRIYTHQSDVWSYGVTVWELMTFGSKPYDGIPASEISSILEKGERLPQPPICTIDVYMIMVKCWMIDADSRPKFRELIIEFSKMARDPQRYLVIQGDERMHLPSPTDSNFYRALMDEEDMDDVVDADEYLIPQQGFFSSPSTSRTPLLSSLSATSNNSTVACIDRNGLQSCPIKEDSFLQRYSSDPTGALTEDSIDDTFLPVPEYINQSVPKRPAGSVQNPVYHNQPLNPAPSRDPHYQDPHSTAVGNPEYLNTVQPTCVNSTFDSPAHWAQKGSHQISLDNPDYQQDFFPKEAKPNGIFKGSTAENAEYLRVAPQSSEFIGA
Chain of EGFR del19/C797S (P00533 with tags, fused parts or gaps DEL746-750/C797S): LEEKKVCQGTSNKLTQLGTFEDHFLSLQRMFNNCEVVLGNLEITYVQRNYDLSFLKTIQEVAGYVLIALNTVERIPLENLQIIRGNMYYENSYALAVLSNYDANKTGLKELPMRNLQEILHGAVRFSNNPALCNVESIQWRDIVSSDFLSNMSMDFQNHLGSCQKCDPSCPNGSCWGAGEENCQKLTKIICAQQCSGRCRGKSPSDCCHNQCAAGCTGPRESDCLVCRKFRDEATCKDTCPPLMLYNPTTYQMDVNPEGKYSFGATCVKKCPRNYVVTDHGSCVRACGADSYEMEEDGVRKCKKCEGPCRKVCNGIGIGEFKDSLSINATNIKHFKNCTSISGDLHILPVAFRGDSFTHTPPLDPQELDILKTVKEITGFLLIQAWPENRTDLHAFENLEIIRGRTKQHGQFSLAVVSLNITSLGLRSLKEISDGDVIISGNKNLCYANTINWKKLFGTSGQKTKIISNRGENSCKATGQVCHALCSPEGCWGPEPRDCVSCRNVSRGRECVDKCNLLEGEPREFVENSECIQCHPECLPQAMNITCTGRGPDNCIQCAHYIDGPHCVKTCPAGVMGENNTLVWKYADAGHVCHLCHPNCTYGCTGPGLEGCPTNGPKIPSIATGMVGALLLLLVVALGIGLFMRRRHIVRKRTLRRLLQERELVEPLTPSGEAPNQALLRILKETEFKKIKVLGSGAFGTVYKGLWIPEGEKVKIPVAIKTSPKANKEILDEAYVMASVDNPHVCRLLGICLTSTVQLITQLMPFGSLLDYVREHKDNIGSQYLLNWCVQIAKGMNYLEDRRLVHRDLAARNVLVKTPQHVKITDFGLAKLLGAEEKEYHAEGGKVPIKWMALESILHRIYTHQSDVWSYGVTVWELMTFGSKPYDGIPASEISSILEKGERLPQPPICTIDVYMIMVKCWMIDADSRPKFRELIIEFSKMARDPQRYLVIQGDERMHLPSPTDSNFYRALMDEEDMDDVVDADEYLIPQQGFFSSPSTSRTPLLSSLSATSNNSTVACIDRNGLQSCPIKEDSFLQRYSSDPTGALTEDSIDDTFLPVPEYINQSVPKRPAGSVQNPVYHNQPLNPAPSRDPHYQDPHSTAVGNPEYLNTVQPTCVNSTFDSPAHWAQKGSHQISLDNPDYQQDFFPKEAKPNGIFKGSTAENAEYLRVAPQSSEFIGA
Chain of EGFR L858R/C797S (P00533 25-1210 C797S/L858R): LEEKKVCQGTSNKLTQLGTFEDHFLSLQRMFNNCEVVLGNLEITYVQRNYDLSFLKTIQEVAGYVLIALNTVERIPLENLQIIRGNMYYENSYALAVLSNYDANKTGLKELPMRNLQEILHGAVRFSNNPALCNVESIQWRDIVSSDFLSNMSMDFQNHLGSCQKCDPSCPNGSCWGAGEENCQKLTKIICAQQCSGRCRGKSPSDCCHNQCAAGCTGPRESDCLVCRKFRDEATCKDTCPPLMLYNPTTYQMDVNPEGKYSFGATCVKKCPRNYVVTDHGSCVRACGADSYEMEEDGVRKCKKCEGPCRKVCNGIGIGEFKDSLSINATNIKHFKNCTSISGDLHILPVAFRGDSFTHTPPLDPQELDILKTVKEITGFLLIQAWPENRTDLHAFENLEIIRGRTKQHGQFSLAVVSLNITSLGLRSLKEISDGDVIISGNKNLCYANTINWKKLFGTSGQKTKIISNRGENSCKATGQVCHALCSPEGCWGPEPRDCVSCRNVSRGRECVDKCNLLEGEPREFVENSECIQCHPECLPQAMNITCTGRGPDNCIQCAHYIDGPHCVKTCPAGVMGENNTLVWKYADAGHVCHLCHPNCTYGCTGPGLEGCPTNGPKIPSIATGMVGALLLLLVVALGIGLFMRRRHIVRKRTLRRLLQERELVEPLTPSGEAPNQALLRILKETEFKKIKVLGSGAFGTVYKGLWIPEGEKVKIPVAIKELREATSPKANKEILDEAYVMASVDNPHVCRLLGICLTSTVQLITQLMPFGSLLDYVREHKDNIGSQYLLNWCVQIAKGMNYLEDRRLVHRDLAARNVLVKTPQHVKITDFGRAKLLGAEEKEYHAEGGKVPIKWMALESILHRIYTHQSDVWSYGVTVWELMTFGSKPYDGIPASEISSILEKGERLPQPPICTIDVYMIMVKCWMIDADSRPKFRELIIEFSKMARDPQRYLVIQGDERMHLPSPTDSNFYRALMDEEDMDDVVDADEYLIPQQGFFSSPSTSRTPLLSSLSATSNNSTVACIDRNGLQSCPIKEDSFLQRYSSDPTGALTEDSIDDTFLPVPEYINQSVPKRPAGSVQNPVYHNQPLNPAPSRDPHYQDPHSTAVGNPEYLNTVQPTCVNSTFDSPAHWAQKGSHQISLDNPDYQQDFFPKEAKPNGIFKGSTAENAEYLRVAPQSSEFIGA
Chain of EGFR wildtype (WT) (P00533 25-1210): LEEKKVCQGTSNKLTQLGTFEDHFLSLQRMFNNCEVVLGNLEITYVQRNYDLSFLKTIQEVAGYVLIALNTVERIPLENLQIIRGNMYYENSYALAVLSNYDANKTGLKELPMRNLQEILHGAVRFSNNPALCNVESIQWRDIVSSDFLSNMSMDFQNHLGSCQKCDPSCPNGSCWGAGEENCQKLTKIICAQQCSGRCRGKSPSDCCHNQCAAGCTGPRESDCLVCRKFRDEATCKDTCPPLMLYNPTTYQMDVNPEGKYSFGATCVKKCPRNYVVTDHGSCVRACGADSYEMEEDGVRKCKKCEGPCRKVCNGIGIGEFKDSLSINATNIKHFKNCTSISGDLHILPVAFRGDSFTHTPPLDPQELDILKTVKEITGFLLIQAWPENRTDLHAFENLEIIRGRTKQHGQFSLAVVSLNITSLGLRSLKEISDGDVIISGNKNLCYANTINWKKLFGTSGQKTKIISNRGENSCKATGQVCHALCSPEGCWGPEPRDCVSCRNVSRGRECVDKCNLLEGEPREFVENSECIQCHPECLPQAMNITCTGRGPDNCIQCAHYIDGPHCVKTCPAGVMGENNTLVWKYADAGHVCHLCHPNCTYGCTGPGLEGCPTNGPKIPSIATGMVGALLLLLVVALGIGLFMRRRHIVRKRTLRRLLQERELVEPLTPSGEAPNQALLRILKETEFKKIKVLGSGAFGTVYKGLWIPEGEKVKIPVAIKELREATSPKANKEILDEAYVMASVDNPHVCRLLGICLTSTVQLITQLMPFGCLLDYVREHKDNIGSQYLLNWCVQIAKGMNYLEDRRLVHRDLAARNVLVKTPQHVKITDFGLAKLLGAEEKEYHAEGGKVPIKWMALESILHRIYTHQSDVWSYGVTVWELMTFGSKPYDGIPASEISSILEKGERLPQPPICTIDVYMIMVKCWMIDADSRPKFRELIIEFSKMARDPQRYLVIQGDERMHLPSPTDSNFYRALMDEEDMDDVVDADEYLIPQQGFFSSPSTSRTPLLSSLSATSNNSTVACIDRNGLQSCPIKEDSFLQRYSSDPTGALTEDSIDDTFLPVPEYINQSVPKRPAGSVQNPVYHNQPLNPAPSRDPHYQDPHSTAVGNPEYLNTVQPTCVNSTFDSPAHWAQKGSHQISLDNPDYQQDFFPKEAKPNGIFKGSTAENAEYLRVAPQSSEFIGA

For the compound `Cn1nc(-c2cnc(Nc3ccnc(-c4cnn(S(=O)(=O)C5CC5)c4)n3)cc2N[C@H]2CC[C@@](C)(O)CC2)cc1N1CCC(F)(F)CC1` [Example 307, (1s,4s)-4-((2-((2-(1-(Cyclopropylsulfonyl)-1H-pyrazol-4-yl)pyrimidin-4-yl)amino)-5-(5-(4,4-difluoropiperidin-1-yl)-1-methyl-1H-pyrazol-3-yl)pyridin-4-yl)amino)-1-methylcyclohexan-1-ol], the IC50 at EGFR wildtype (WT) (setting [1]) is 20.9 nM; on EGFR del19/C797S, 7.5 nM.

`O=S(=O)(C1CC1)n1cc(-c2nccc(Nc3cc(C#Cc4cnn(C5CC5)c4)c(-c4cnn(C5CC5)c4)cn3)n2)cn1` [Example 5, N-(5-(1-Cyclopropyl-1H-pyrazol-4-yl)-4-((1-cyclopropyl-1H-pyrazol-4-yl)ethynyl)pyridin-2-yl)-2-(1-(cyclopropylsulfonyl)-1H-pyrazol-4-yl)pyrimidin-4-amine]: the IC50 on EGFR L858R/T790M/C797S (setting [2]) was 13.2 nM; at EGFR del19/T790M/C797S (setting [3]), 10.6 nM; on EGFR del19/C797S, 317 nM.

Turning to `CN(C)C(=O)C[C@H]1CC[C@@H](Nc2cc(Nc3ccnc(-c4cnn(S(=O)(=O)C5CC5)c4)n3)ncc2-c2cc(C(F)(F)F)n(C)n2)CC1` [Example 258, 2-((1s,4s)-4-((2-((2-(1-(Cyclopropylsulfonyl)-1H-pyrazol-4-yl)pyrimidin-4-yl)amino)-5-(1-methyl-5-(trifluoromethyl)-1H-pyrazol-3-yl)pyridin-4-yl)amino)cyclohexyl)-N,N-dimethylacetamide], the IC50 against EGFR L858R/C797S (setting [4]) was found to be 26.7 nM; at EGFR wildtype (WT) (setting [5]), 2070 nM; at EGFR wildtype (WT) (setting [1]) it was 9 nM; on EGFR L858R/T790M/C797S (setting [6]), 2.8 nM; on EGFR L858R/T790M/C797S (setting [2]), 1.4 nM; against EGFR del19/T790M/C797S (setting [7]), 5.1 nM. Also, at EGFR del19/T790M/C797S (setting [3]), the IC50 is 2.5 nM.

As for `Cn1ccc(-c2cnc(Nc3ccnc(-c4cnn(S(=O)(=O)C5CC5)c4)n3)cc2N[C@H]2CC[C@@H](C(C)(C)O)CC2)n1` [Example 42, 2-((1s,4s)-4-((2-((2-(1-(Cyclopropylsulfonyl)-1H-pyrazol-4-yl)pyrimidin-4-yl)amino)-5-(1-methyl-1H-pyrazol-3-yl)pyridin-4-yl)amino)cyclohexyl)propan-2-ol], the IC50 is 11.3 nM at EGFR L858R/C797S (setting [4]); 1 nM on EGFR L858R/C797S (setting [8]); 7830 nM against EGFR wildtype (WT) (setting [5]); 1.9 nM at EGFR L858R/T790M/C797S (setting [6]); 0.6 nM on EGFR L858R/T790M/C797S (setting [2]); 1.4 nM against EGFR del19/T790M/C797S (setting [7]). Moreover, on EGFR del19/T790M/C797S (setting [3]), the IC50 worked out at 0.9 nM.

As to `Cn1cc(C#Cc2cc(Nc3ccnc(-c4cnn(S(=O)(=O)C5CC5)c4)n3)ncc2-c2cnn(C3CC3)c2)cn1` [Example 1, N-(5-(1-Cyclopropyl-1H-pyrazol-4-yl)-4-((1-methyl-1H-pyrazol-4-yl)ethynyl)pyridin-2-yl)-2-(1-(cyclopropylsulfonyl)-1H-pyrazol-4-yl)pyrimidin-4-amine], the IC50 at EGFR wildtype (WT) (setting [1]) was found to be 88.5 nM; at EGFR L858R/T790M/C797S (setting [2]), 5.9 nM; at EGFR del19/T790M/C797S (setting [3]), 99 nM; at EGFR del19/C797S, 63 nM.

For the compound `Cn1cc(-c2cnc(Nc3ccnc(-c4cnn(S(=O)(=O)C5CC5)c4)n3)cc2C#CC(C)(C)O)cn1` [Example 4, 4-(2-((2-(1-(Cyclopropylsulfonyl)-1H-pyrazol-4-yl)pyrimidin-4-yl)amino)-5-(1-methyl-1H-pyrazol-4-yl)pyridin-4-yl)-2-methylbut-3-yn-2-ol], the IC50 was determined as 75.9 nM at EGFR L858R/C797S (setting [8]), 214 nM on EGFR wildtype (WT) (setting [1]), 0.8 nM on EGFR L858R/T790M/C797S (setting [2]) and 3.2 nM at EGFR del19/T790M/C797S (setting [3]).

`CC1(O)CCC(Nc2cc(Nc3ccnc(-c4cnn(S(=O)(=O)C5CCOC5)c4)n3)ncc2-c2ccn(C(F)F)n2)CC1` (stereo not shown) [Example 114, (1s,4s)-4-((5-(1-(Difluoromethyl)-1H-pyrazol-3-yl)-2-((2-(1-((tetrahydrofuran-3-yl)sulfonyl)-1H-pyrazol-4-yl)pyrimidin-4-yl)amino)pyridin-4-yl)amino)-1-methylcyclohexan-1-ol]: the IC50 on EGFR L858R/C797S (setting [8]) was 1 nM; at EGFR wildtype (WT) (setting [1]), 4.2 nM; at EGFR L858R/T790M/C797S (setting [2]) it was 0.2 nM; on EGFR del19/T790M/C797S (setting [3]) it was 0.6 nM.

`CC1(O)CCC(Oc2cc(Nc3ccnc(-c4cnn(S(=O)(=O)C5CC5)c4)n3)ncc2-c2cnn(C(F)F)c2)CC1` (stereo not shown) [Example 73, 4-((2-((2-(1-(Cyclopropylsulfonyl)-1H-pyrazol-4-yl)pyrimidin-4-yl)amino)-5-(1-(difluoromethyl)-1H-pyrazol-4-yl)pyridin-4-yl)oxy)-1-methylcyclohexan-1-ol]: the IC50 is 41.3 nM at EGFR L858R/C797S (setting [4]); 2.9 nM at EGFR L858R/C797S (setting [8]); over 10000 nM at EGFR wildtype (WT) (setting [5]); 65.3 nM at EGFR wildtype (WT) (setting [1]); 1.1 nM against EGFR L858R/T790M/C797S (setting [6]); 0.2 nM at EGFR L858R/T790M/C797S (setting [2]). The IC50 against EGFR del19/T790M/C797S (setting [7]) amounted to 0.4 nM; at EGFR del19/T790M/C797S (setting [3]) it was 0.5 nM.

`CN1CCN(c2nc(-c3cnc(Nc4ccnc(-c5cnn(S(=O)(=O)C6CC6)c5)n4)cc3N[C@H]3CC[C@@](C)(O)CC3)cs2)CC1` [Example 121, (1s,4s)-4-((2-((2-(1-(Cyclopropylsulfonyl)-1H-pyrazol-4-yl)pyrimidin-4-yl)amino)-5-(2-(4-methylpiperazin-1-yl)thiazol-4-yl)pyridin-4-yl)amino)-1-methylcyclohexan-1-ol]: the IC50 at EGFR L858R/C797S (setting [4]) was 19.8 nM; on EGFR L858R/C797S (setting [8]), 2.4 nM; at EGFR wildtype (WT) (setting [5]) it was 8920 nM; on EGFR wildtype (WT) (setting [1]), 12.8 nM; at EGFR L858R/T790M/C797S (setting [6]), 1.4 nM; at EGFR L858R/T790M/C797S (setting [2]), 0.4 nM. Moreover, the IC50 turned out to be 1.7 nM against EGFR del19/T790M/C797S (setting [7]) and 1.2 nM at EGFR del19/T790M/C797S (setting [3]).

Take `CC(C)(O)[C@H]1CC[C@@H](Nc2cc(Nc3ccnc(-c4cnn(S(=O)(=O)C5CC5)c4)n3)ncc2-c2ccn(C3COC3)n2)CC1` [Example 283, 2-((1s,4s)-4-((2-((2-(1-(Cyclopropylsulfonyl)-1H-pyrazol-4-yl)pyrimidin-4-yl)amino)-5-(1-(oxetan-3-yl)-1H-pyrazol-3-yl)pyridin-4-yl)amino)cyclohexyl)propan-2-ol]: the IC50 stood at 2.9 nM against EGFR L858R/C797S (setting [4]); 0.6 nM at EGFR L858R/C797S (setting [8]); 2000 nM at EGFR wildtype (WT) (setting [5]); 4.8 nM on EGFR wildtype (WT) (setting [1]); 0.5 nM against EGFR L858R/T790M/C797S (setting [6]); 0.3 nM on EGFR L858R/T790M/C797S (setting [2]). The IC50 against EGFR del19/T790M/C797S (setting [7]) and on EGFR del19/T790M/C797S (setting [3]) was 0.6 nM in each case.

`Cn1cc(C#Cc2cc(Nc3ccnc(-c4cnn(S(=O)(=O)C5CC5)c4)n3)ncc2-c2cnn(CC3CC3)c2)cn1` [Example 3, N-(5-(1-(Cyclopropylmethyl)-1H-pyrazol-4-yl)-4-((1-methyl-1H-pyrazol-4-yl)ethynyl)pyridin-2-yl)-2-(1-(cyclopropylsulfonyl)-1H-pyrazol-4-yl)pyrimidin-4-amine]: the IC50 on EGFR wildtype (WT) (setting [1]) was 229 nM; on EGFR del19/T790M/C797S (setting [3]), 6.4 nM; on EGFR del19/C797S, 39.7 nM.

For `Cn1cc(C#Cc2cc(Nc3ccnc(-c4cnn(S(=O)(=O)C5CC5)c4)n3)ncc2-c2cnn(C(F)F)c2)cn1` [Example 2, 2-(1-(Cyclopropylsulfonyl)-1H-pyrazol-4-yl)-N-(5-(1-(difluoromethyl)-1H-pyrazol-4-yl)-4-((1-methyl-1H-pyrazol-4-yl)ethynyl)pyridin-2-yl)pyrimidin-4-amine], the IC50 at EGFR del19/T790M/C797S (setting [3]) worked out at 31.3 nM; on EGFR del19/C797S it was 371 nM.

On to `CC(C)n1cc(C#Cc2cc(Nc3ccnc(-c4cnn(S(=O)(=O)C5CC5)c4)n3)ncc2-c2cnn(C3CC3)c2)cn1` [Example 6, N-(5-(1-Cyclopropyl-1H-pyrazol-4-yl)-4-((1-isopropyl-1H-pyrazol-4-yl)ethynyl)pyridin-2-yl)-2-(1-(cyclopropylsulfonyl)-1H-pyrazol-4-yl)pyrimidin-4-amine], for which the IC50 on EGFR L858R/T790M/C797S (setting [2]) came out at 19.5 nM; at EGFR del19/T790M/C797S (setting [3]), 16.1 nM; on EGFR del19/C797S it was 347 nM.

`C[C@]1(O)CC[C@@H](Nc2cc(Nc3ccnc(-c4cnn(S(=O)(=O)C5CC5)c4)n3)ncc2-n2ccc(C(F)F)n2)CC1` [Example 172, (1s,4s)-4-((2-((2-(1-(Cyclopropylsulfonyl)-1H-pyrazol-4-yl)pyrimidin-4-yl)amino)-5-(3-(difluoromethyl)-1H-pyrazol-1-yl)pyridin-4-yl)amino)-1-methylcyclohexan-1-ol]: the IC50 came out at 9.3 nM at EGFR L858R/C797S (setting [8]), 3.4 nM on EGFR wildtype (WT) (setting [1]), 0.1 nM at EGFR L858R/T790M/C797S (setting [2]) and 0.3 nM on EGFR del19/T790M/C797S (setting [3]).
